The source of these data is ChEMBL document CHEMBL5634180, “Serratiomycins D1-D3, Antibacterial Cyclic Peptides from a Serratia sp. and Structure Revision of Serratiomycin” (2024).

In one assay the test system is Staphylococcus aureus. Nature of the assay: Antibacterial activity against Staphylococcus aureus ATCC 25923 incubated for 16 to 20 hrs. The format is functional. The following applies: time 16-20 hrs.
The subject of a further assay is Enterococcus faecium. Description: Antibacterial activity against Enterococcus faecium ATCC 19434 incubated for 16 to 20 hrs. The format is functional. The following applies: time 16-20 hrs.
The subject of a further assay is Enterococcus faecalis. Description: Antibacterial activity against Enterococcus faecalis ATCC 19433 incubated for 16 to 20 hrs. The format is functional. The settings on record: time 16-20 hrs.
The next assay has as its system Klebsiella pneumoniae. Description: Antibacterial activity against Klebsiella pneumoniae ATCC 10031 incubated for 16 to 20 hrs. Format: functional. The settings on record: time 16-20 hrs.
Another assay concerns Escherichia coli. Description: Antibacterial activity against Escherichia coli ATCC 25922 incubated for 16 to 20 hrs. The following applies: time 16-20 hrs. Format: functional.
The next assay relates to Candida albicans. Nature of the assay: Antifungal activity against Candida albicans ATCC 10231 incubated for 16 to 20 hrs. Format: functional. The settings on record: time 16-20 hrs.
In the next assay the test system is Aspergillus fumigatus. Nature of the assay: Antifungal activity against Aspergillus fumigatus HIC6094 incubated for 16 to 20 hrs. Format: functional. The settings on record: time 16-20 hrs.
A further assay has as its system Trichophyton rubrum. Description: Antifungal activity against Trichophyton rubrum NBRC9185 incubated for 16 to 20 hrs. Format: functional. The settings on record: time 16-20 hrs.
Assay [1] has as its system Trichophyton mentagrophytes. Description: Antifungal activity against Trichophyton mentagrophytes IFM40996 incubated for 16 to 20 hrs. Format: functional. The settings on record: time 16-20 hrs.
The test system of a further assay is Salmonella enterica. Description: microbe, parasite or virus in culture. The following applies: ATCC 14028.

Converted amounts (≈) assume the structure as drawn. Some results are limits rather than exact numbers.

Description for Salmonella enterica: Antibacterial activity against Salmonella enterica ATCC 14028 incubated for 16 to 20 hrs

Take `CCCCCC/C=C\C[C@@H]1CC(=O)N[C@H](CC(C)C)C(=O)N[C@@H](CO)C(=O)N[C@@H]([C@@H](C)O)C(=O)N[C@H](Cc2ccccc2)C(=O)N[C@@H]([C@H](C)CC)C(=O)O1`: the MIC is 16 µg/mL (≈ 21.1 µM) in the assay on Staphylococcus aureus; 32 µg/mL (≈ 42.2 µM) with Enterococcus faecium; 32 µg/mL (≈ 42.2 µM) against Enterococcus faecalis; above 128 µg/mL with Klebsiella pneumoniae; above 128 µg/mL against Escherichia coli; above 128 µg/mL with Candida albicans. The MIC is above 128 µg/mL in the assay with Aspergillus fumigatus, above 128 µg/mL against Trichophyton rubrum, above 128 µg/mL in assay [1] and 8 µg/mL (≈ 10.6 µM) with Salmonella enterica.
With `CCCCCCCCC[C@@H]1CC(=O)N[C@H](CC(C)C)C(=O)N[C@@H](CO)C(=O)N[C@@H]([C@@H](C)O)C(=O)N[C@H](Cc2ccccc2)C(=O)N[C@@H]([C@H](C)CC)C(=O)O1`, the MIC in the assay with Staphylococcus aureus was 16 µg/mL (≈ 21.1 µM); in the assay on Enterococcus faecium, 32 µg/mL (≈ 42.1 µM); against Enterococcus faecalis, 64 µg/mL (≈ 84.2 µM); with Klebsiella pneumoniae, above 128 µg/mL; against Escherichia coli, above 128 µg/mL; in the assay on Candida albicans it was above 128 µg/mL. In addition, the MIC against Aspergillus fumigatus is above 128 µg/mL; in the assay with Trichophyton rubrum, above 128 µg/mL; in assay [1] it was above 128 µg/mL; against Salmonella enterica, 16 µg/mL (≈ 21.1 µM).
Regarding `CCCCCCC[C@@H]1CC(=O)N[C@H](CC(C)C)C(=O)N[C@@H](CO)C(=O)N[C@@H]([C@@H](C)O)C(=O)N[C@H](Cc2ccc(O)cc2)C(=O)N[C@@H](C(C)C)C(=O)O1`, the MIC against Staphylococcus aureus, against Enterococcus faecium, in the assay on Enterococcus faecalis, with Klebsiella pneumoniae, against Escherichia coli and against Candida albicans was above 128 µg/mL each time. The MIC (against Aspergillus fumigatus; in the assay with Trichophyton rubrum; in [1]; in the assay with Salmonella enterica) was above 128 µg/mL throughout.
As for `CCCCCCC[C@@H]1CC(=O)N[C@H](CC(C)C)C(=O)N[C@@H](CO)C(=O)N[C@@H]([C@@H](C)O)C(=O)N[C@H](Cc2ccccc2)C(=O)N[C@@H]([C@H](C)CC)C(=O)O1`, the MIC was 32 µg/mL (≈ 43.7 µM) in the assay on Staphylococcus aureus; 32 µg/mL (≈ 43.7 µM) against Enterococcus faecium; 32 µg/mL (≈ 43.7 µM) in the assay with Enterococcus faecalis; above 128 µg/mL against Klebsiella pneumoniae; above 128 µg/mL in the assay with Escherichia coli; above 128 µg/mL with Candida albicans. In addition, the MIC with Aspergillus fumigatus was above 128 µg/mL; with Trichophyton rubrum, above 128 µg/mL; in assay [1], above 128 µg/mL; in the assay with Salmonella enterica, 32 µg/mL (≈ 43.7 µM).
Regarding `CCCCCCC[C@@H](O)CC(=O)N[C@H](CC(C)C)C(=O)N[C@@H](CO)C(=O)N[C@H](C(=O)N[C@H](Cc1ccccc1)C(=O)N[C@H](C(=O)OC)[C@H](C)CC)[C@@H](C)O`, the MIC in the assay on Staphylococcus aureus, against Enterococcus faecium, with Enterococcus faecalis, with Klebsiella pneumoniae, with Escherichia coli and against Candida albicans was above 128 µg/mL in each case. Besides, the MIC (in the assay with Aspergillus fumigatus; against Trichophyton rubrum; in assay [1]; against Salmonella enterica) was above 128 µg/mL throughout.
With `C[C@@H]1[C@H](O)[C@@H](C)/C=C/C=C/C=C/C=C/C=C/C=C/C=C/[C@H](O[C@@H]2O[C@H](C)[C@@H](O)[C@H](N)[C@@H]2O)C[C@@H]2O[C@](O)(C[C@@H](O)C[C@@H](O)[C@H](O)CC[C@@H](O)C[C@@H](O)CC(=O)O[C@H]1C)C[C@H](O)[C@H]2C(=O)O` [AMPHOTERICIN B], the MIC in the assay on Candida albicans amounted to 0.5 µg/mL (≈ 0.541 µM); against Aspergillus fumigatus, 1 µg/mL (≈ 1.08 µM); against Trichophyton rubrum, 1 µg/mL (≈ 1.08 µM); in assay [1], 1 µg/mL (≈ 1.08 µM).
For the molecule `CC1(C)S[C@@H]2[C@H](NC(=O)[C@H](N)c3ccccc3)C(=O)N2[C@H]1C(=O)O` [AMPICILLIN], the MIC against Staphylococcus aureus was 0.13 µg/mL (≈ 0.372 µM); in the assay with Enterococcus faecium, 0.5 µg/mL (≈ 1.43 µM); in the assay with Enterococcus faecalis, 0.5 µg/mL (≈ 1.43 µM); in the assay on Klebsiella pneumoniae it was above 128 µg/mL; against Escherichia coli it was 8 µg/mL (≈ 22.9 µM); against Salmonella enterica, 0.5 µg/mL (≈ 1.43 µM).
Regarding `CN(C)[C@@H]1C(O)=C(C(N)=O)C(=O)[C@@]2(O)C(O)=C3C(=O)c4c(O)cccc4[C@@](C)(O)[C@H]3C[C@@H]12` [TETRACYCLINE], in the assay with Klebsiella pneumoniae, the MIC was 0.25 µg/mL (≈ 0.563 µM).
